Like-named read-outs stand apart in the source and are kept apart here.
Experiments:
E. coli Top10 = assay: MIC determination by microdilution, E. coli Top10 without β-lactamase (None); assay type: cell-based
Excerpt: (§1) Plasmid and strain construction. For antibiotic susceptibility testing, the R-lactamase genes were cloned into the vector pTRC-99k, which is a derivative of pTRC99a (Pharmacia) obtained by replacing the β-lactamase resistance gene by a kanamycin resistance gene (Km, lacl, pTRC promoter, oriVcolEl; D. Mengin-Lecreulx, unpublished). Recombinant plasmids were introduced by electrotransformation into Escherichia coli Top10. For β-lactamase production, fragments of the β-lactamase genes encoding soluble enzymes, i.e. devoid of the signal peptides, were cloned into the vector pET-TEV generating translational fusions with a vector-encoded N-terminal 6×His Tag followed by a TEV cleavage site ([…]) (1).
(§2) MIC determination. MICs of β-lactams were determined by the microdilution method in MH broth according to Clinical and Laboratory Standards Institute (CLSI) recommendations (12). Diazabicyclooctane were used at a fixed concentration of 15 μM (4 μg/ml for avibactam). Clavulanate was tested at 4 μg/ml. IPTG (500 μM) was added to the microdilution plates to induce production of the -lactamase. The precultures were grown in BHI broth containing IPTG (500 μM) and kanamycin (50 μg/ml) for plasmid maintenance. Reported MICs are the medians from five biological repeats obtained in two independent experiments.

[1] = test system: E. coli Top10 producing AmpCEcl; assay: MIC determination by microdilution, E. coli Top10 producing AmpCEcl; assay type: cell-based; settings: Escherichia coli, read-out: MIC of β-lactam, inhibitor None
Excerpt: as §1, §2

KPC-2 = target: T1, KPC-2 (Klebsiella pneumoniae, UniProt Q9F663); assay: Kinetic parameters of β-lactamase carbamoylation/de-carbamoylation (nitrocefin), KPC-2; assay type: biochemical; settings: for Carbamoylation efficacy of β-lactamases by diazabicyclooctanes / De-carbamoylation rate constant k−2 for β-lactamase-diazabicyclooctane adducts: KPC-2, 20° C., nitrocefin 100 μM, MES pH 6.4; for activity against KPC-2 (in words): summary of Tables 1 and 2
T1 construct: fragments of the β-lactamase genes encoding soluble enzymes, i.e. devoid of the signal peptides; 6xHis tag followed by TEV cleavage site ([…]) (N); made in house; host or cells: E. coli BL21 (DE3)
T1 sequence (Q9F663 25-293 limits assumed): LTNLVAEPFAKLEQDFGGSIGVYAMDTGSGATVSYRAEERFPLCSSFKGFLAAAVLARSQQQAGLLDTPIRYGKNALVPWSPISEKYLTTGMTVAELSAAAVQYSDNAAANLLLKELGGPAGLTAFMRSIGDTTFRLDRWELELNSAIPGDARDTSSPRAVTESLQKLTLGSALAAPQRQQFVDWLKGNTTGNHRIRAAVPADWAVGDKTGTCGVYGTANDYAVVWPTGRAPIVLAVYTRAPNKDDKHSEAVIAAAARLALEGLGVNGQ
Excerpt: as §1
(§3) Production and purification of β-lactamases. E. coli BL21 (DE3) harboring recombinant plasmids were grown in brain heart infusion (BHI) broth supplemented with kanamycin (50 μg/ml) at 37° C. under vigorous shaking until the optical density at 600 nm (OD600) reached 0.8. Isopropyl β-D-1-thiogalactopyranoside IPTG (0.5 mM) was added and incubation was continued at 16° C. for 18 h. Bacteria were harvested by centrifugation, re-suspended in 25 mM Tris-HCl (pH 7.5) containing 300 mM NaCl (buffer A) and lysed by sonication. The enzymes were purified from clarified lysates by affinity chromatography (NiNTA agarose, Sigma-Aldrich) and size exclusion chromatography in buffer A (Superdex 200 HL26/60, Amersham Pharmacia Biotech). Protein concentration was determined by the Biorad protein assay using bovine serum albumin as a standard.
(§4) Determination of kinetic parameters. […] Briefly, the initial velocity (vi) was determined by spectrophotometry for various concentrations of β-lactams [S] and a fixed concentration of β-lactamase [E]. The values of vi were plotted as a function of [S]. The kinetic constants Km and kcat were determined by fitting the equation […] to the resulting curve. The molecular extinction coefficient was 14,600 M^−1 cm^−1 at 486 nm for nitrocefin. […] Kinetics constants were deduced from a minimum of 6 progress curves obtained in a minimum of two independent experiments.

CTX-M-15 = target: T2, CTX-M-15 (Escherichia coli, UniProt Q9EXV5); assay: Kinetic parameters of β-lactamase carbamoylation/de-carbamoylation (nitrocefin), CTX-M-15; assay type: biochemical; settings: for Carbamoylation efficacy of β-lactamases by diazabicyclooctanes / De-carbamoylation rate constant k−2 for β-lactamase-diazabicyclooctane adducts: CTX-M-15, 20° C., nitrocefin 100 μM, MES pH 6.4; for activity against CTX-M-15 (in words): summary of Tables 1 and 2
T2 construct: fragments of the β-lactamase genes encoding soluble enzymes, i.e. devoid of the signal peptides; made in house; host or cells: E. coli BL21 (DE3)
T2 sequence (Q9EXV5 entry or part of it): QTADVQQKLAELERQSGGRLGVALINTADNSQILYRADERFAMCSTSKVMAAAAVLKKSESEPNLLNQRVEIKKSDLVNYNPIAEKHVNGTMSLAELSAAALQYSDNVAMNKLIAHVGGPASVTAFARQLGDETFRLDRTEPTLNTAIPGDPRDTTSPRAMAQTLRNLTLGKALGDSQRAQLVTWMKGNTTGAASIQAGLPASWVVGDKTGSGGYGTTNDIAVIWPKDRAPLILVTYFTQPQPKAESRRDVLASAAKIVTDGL
Excerpt: as §1, §3, §4

TEM-1 = target: T3, TEM-1 (Escherichia coli, UniProt P62593); assay: Kinetic parameters of β-lactamase carbamoylation/de-carbamoylation (nitrocefin), TEM-1; assay type: biochemical; settings: 20° C., nitrocefin 100 μM, MES pH 6.4
T3 construct: fragments of the β-lactamase genes encoding soluble enzymes, i.e. devoid of the signal peptides; made in house; host or cells: E. coli BL21 (DE3)
T3 sequence (P62593 24-286 limits assumed): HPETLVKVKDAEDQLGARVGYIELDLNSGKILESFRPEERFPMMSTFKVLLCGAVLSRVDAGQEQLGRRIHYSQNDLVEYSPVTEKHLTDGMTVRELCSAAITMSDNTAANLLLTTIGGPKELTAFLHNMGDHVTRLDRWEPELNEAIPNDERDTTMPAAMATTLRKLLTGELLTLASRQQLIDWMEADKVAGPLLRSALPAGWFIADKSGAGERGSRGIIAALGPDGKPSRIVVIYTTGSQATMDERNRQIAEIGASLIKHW
Excerpt: as §1, §3, §4

AmpCEclo = target: T4, AmpCEclo (Enterobacter cloacae, UniProt P05364); assay type: biochemical; settings: for Carbamoylation efficacy of β-lactamases by diazabicyclooctanes / De-carbamoylation rate constant k−2 for β-lactamase-diazabicyclooctane adducts: AmpCEclo, 20° C., nitrocefin 100 μM, MES pH 6.4
T4 construct: fragments of the β-lactamase genes encoding soluble enzymes, i.e. devoid of the signal peptides; 6xHis tag followed by TEV cleavage site ([…]) (N); made in house; host or cells: E. coli BL21 (DE3)
T4 sequence (P05364 21-381): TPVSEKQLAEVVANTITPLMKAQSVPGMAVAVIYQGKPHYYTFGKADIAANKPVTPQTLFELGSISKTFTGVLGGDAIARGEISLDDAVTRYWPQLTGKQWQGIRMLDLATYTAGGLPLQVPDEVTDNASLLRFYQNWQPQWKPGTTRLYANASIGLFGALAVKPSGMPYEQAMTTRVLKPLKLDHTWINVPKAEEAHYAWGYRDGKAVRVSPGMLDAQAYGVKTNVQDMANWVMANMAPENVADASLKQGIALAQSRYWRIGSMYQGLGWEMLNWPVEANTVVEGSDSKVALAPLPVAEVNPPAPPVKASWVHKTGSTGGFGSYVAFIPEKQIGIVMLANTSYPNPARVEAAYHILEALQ
Protocol: as §3, §4

OXA-48 = target: T5, OXA-48 (Klebsiella pneumoniae, UniProt Q6XEC0); assay: Kinetic parameters of β-lactamase carbamoylation/de-carbamoylation (nitrocefin), OXA-48; assay type: biochemical; settings: for Carbamoylation efficacy of β-lactamases by diazabicyclooctanes / De-carbamoylation rate constant k−2 for β-lactamase-diazabicyclooctane adducts: OXA-48, 20° C., nitrocefin 100 μM, MES pH 6.4, NA = no inhibition at 100 μM
T5 construct: fragments of the β-lactamase genes encoding soluble enzymes, i.e. devoid of the signal peptides; 6xHis tag followed by TEV cleavage site ([…]) (N); made in house; host or cells: E. coli BL21 (DE3)
T5 sequence (Q6XEC0 23-265 limits assumed): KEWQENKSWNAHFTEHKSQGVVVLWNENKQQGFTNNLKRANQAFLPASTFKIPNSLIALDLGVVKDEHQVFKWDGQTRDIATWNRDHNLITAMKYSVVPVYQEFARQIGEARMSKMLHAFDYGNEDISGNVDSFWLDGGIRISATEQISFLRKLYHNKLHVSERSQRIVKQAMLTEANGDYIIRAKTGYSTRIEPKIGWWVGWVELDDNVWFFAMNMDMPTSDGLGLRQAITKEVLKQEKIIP
Excerpt: as §1, §3, §4

[2] = test system: E. coli Top10 producing CTX-M15; assay: MIC determination by microdilution, E. coli Top10 producing CTX-M15; assay type: cell-based, Escherichia coli; settings: for reduction in the MICs of β-lactams (in words): E. coli Top10 producing CTX-M-15, summary of Table 1
Excerpt: as §1, §2

[3] = test system: E. coli Top10 producing KPC-2; assay type: cell-based, Escherichia coli; settings: summary of Table 1
[4] = test system: E. coli Top10 producing OXA-48; assay: MIC determination by microdilution, E. coli Top10 producing OXA-48; assay type: cell-based; settings: Escherichia coli, read-out: MIC of β-lactam, inhibitor None
Excerpt: as §1, §2

Row | SMILES | Carbamoylation efficacy of β-lactamases by diazabicyclooctanes (KPC-2) | De-carbamoylation rate constant k−2 for β-lactamase-diazabicyclooctane adducts (KPC-2) | Carbamoylation efficacy of β-lactamases by diazabicyclooctanes (CTX-M-15) | De-carbamoylation rate constant k−2 for β-lactamase-diazabicyclooctane adducts (CTX-M-15) | Carbamoylation efficacy of β-lactamases by diazabicyclooctanes (TEM-1) | De-carbamoylation rate constant k−2 for β-lactamase-diazabicyclooctane adducts (TEM-1) | Carbamoylation efficacy of β-lactamases by diazabicyclooctanes (AmpCEclo) | De-carbamoylation rate constant k−2 for β-lactamase-diazabicyclooctane adducts (AmpCEclo) | also measured
1 | CO/N=C(\C(=O)N[C@@H]1C(=O)N2C(C(=O)O)=C(COC(C)=O)CS[C@H]12)c1csc(N)n1 [Cefotaxime] | – | – | – | – | – | – | – | – | MIC (E. coli Top10; Escherichia coli; Cefotaxime alone; E. coli Top10, β-lactamase None; read-out: MIC of β-lactam, inhibitor None): 0.12 µg/mL; MIC [1]: 128 µg/mL
2 | O=C1N2C[C@@H](CC[C@H]2Cn2cc(CN3CCOCC3)nn2)N1OS(=O)(=O)[O-].[Na+] [Compound 1a.i11] | (1.9 ± 0.2) × 10^2 M^−1 s^−1 | (3.0 ± 0.4) × 10^−3 s−1 | (1.0 ± 0.0) × 10^2 M^−1 s^−1 | (4.6 ± 1.1) × 10^−4 s−1 | (1.2 ± 0.0) × 10^3 M^−1 s^−1 | (2.9 ± 0.3) × 10^−3 s−1 | (3.1 ± 0.3) × 10^1 M^−1 s^−1 | (8.9 ± 2.1) × 10^−4 s−1 | activity against KPC-2 (in words) (KPC-2): displayed activity; activity against CTX-M-15 (in words) (CTX-M-15): displayed activity
3 | NC(=O)[C@@H]1CC[C@@H]2CN1C(=O)N2OS(=O)(=O)O [Avibactam, reference compound] | (2.6 ± 0.1) × 10^4 M^−1 s^−1 | (4.0 ± 0.3) × 10^−3 s−1 | (1.3 ± 0.1) × 10^5 M^−1 s^−1 | (1.1 ± 0.3) × 10^−3 s−1 | (8.8 ± 0.2) × 10^4 M^−1 s^−1 | (1.3 ± 0.1) × 10^−3 s−1 | (1.8 ± 0.1) × 10^4 M^−1 s^−1 | (1.8 ± 0.2) × 10^−3 s−1 | inhibition of β-lactamase OXA-48 (in words) (OXA-48): poorly inhibited; Carbamoylation efficacy of β-lactamases by diazabicyclooctanes (OXA-48): (9.8 ± 0.6) × 10^2 M^−1 s^−1; De-carbamoylation rate constant k−2 for β-lactamase-diazabicyclooctane adducts (OXA-48): (2.7 ± 0.1 ) × 10^−3 s−1; inhibition of β-lactamase AmpClo (in words) (AmpCEclo): poorly inhibited
4 | CC1(C)S[C@@H]2[C@H](NC(=O)[C@H](N)c3ccc(O)cc3)C(=O)N2[C@H]1C(=O)O [Amoxicillin, reference compound] | – | – | – | – | – | – | – | – | MIC (E. coli Top10; Escherichia coli, TOP10, read-out: MIC of β-lactam, inhibitor None): 4 µg/mL; MIC ([2]; Escherichia coli, read-out: MIC of β-lactam, inhibitor None): 2050 µg/mL
5 | C[C@H]1[C@H](NC(=O)/C(=N\OC(C)(C)C(=O)O)c2csc(N)n2)C(=O)N1S(=O)(=O)O [Aztreonam] | – | – | – | – | – | – | – | – | MIC (E. coli Top10; Escherichia coli, TOP10; read-out: MIC of β-lactam, inhibitor None): 0.5 µg/mL
6 | C[Si](C)(C)c1cn(C[C@@H]2CC[C@@H]3CN2C(=O)N3OS(=O)(=O)O)nn1 [Compound 2a.i] | (9.7 ± 0.8) × 10^1 M^−1 s^−1 | (2.9 ± 0.2) × 10^−3 s−1 | (4.0 ± 0.1) × 10^2 M^−1 s^−1 | (3.9 ± 0.9) × 10^−4 s−1 | (3.7 ± 0.5) × 10^2 M^−1 s^−1 | (2.9 ± 0.9) × 10^−3 s−1 | (2.4 ± 0.1) × 10^1 M^−1 s^−1 | (1.3 ± 0.9) × 10^−3 s−1 | reduction in the MICs of β-lactams (in words) [3]: Minor reduction; reduction in the MICs of β-lactams (in words) [2]: Minor reduction
7 | C[C@@H](O)[C@H]1C(=O)N2C(C(=O)O)=C(S[C@@H]3CN[C@H](C(=O)Nc4cccc(C(=O)O)c4)C3)[C@H](C)[C@H]12 [Ertapenem] | – | – | – | – | – | – | – | – | MIC (E. coli Top10; Escherichia coli; Ertapenem alone; E. coli Top10, β-lactamase None; read-out: MIC of β-lactam, inhibitor None): < 0.03 µg/mL; MIC [4]: 16 µg/mL
8 | O=C1N2C[C@@H](CC[C@H]2Cn2cc(-c3cccnc3)nn2)N1OS(=O)(=O)O [Compound 1a.i] | (5.5 ± 0.1) × 10^2 M^−1 s^−1 | (3.0 ± 0.1) × 10^−3 s−1 | (1.7 ± 0.4) × 10^3 M^−1 s^−1 | (6.4 ± 0.8) × 10^−4 s−1 | (1.4 ± 0.1) × 10^3 M^−1 s^−1 | (2.1 ± 0.2) × 10^−3 s−1 | (8.5 ± 0.7) × 10^1 M^−1 s^−1 | (2.1 ± 0.5) × 10^−3 s−1 | activity against KPC-2 (in words) (KPC-2): displayed activity; activity against CTX-M-15 (in words) (CTX-M-15): displayed activity
9 | COCc1cn(C[C@@H]2CC[C@@H]3CN2C(=O)N3OS(=O)(=O)[O-])nn1.[Na+] [Compound 1a.i13] | (1.8 ± 0.2) × 10^1 M^−1 s^−1 | (1.2 ± 0.1) × 10^−3 s−1 | (1.2 ± 0.4) × 10^2 M^−1 s^−1 | (1.3 ± 1.3) × 10^−3 s−1 | (8.3 ± 0.5) × 10^2 M^−1 s^−1 | (1.6 ± 0.5) × 10^−3 s−1 | (1.5 ± 0.5) × 10^1 M^−1 s^−1 | (1.3 ± 0.6) × 10^−3 s−1 | reduction in the MICs of β-lactams (in words) [3]: Minor reduction; reduction in the MICs of β-lactams (in words) [2]: Minor reduction
10 | O=C(O)CCc1cn(C[C@@H]2CC[C@@H]3CN2C(=O)N3OS(=O)(=O)[O-])nn1.[Na+] [Compound 1a.i14] | (7.0 ± 0.8) × 10^1 M^−1 s^−1 | (7.9 ± 1.7) × 10^−4 s−1 | (1.1 ± 0.1) × 10^2 M^−1 s^−1 | (3.9 ± 0.8) × 10^−4 s−1 | (7.2 ± 0.6) × 10^2 M^−1 s^−1 | (8.2 ± 8.9) × 10^−4 s−1 | (9.9 ± 0.9) × 10^1 M^−1 s^−1 | (1.6 ± 0.2) × 10^−3 s−1 | reduction in the MICs of β-lactams (in words) [3]: Minor reduction; reduction in the MICs of β-lactams (in words) [2]: Minor reduction
11 | O=C1N2C[C@@H](CC[C@H]2Cn2cc(-c3ccccc3)nn2)N1OS(=O)(=O)[O-].[Na+] [Compound 1a.i16] | (9.3 ± 0.4) × 10^2 M^−1 s^−1 | (8.8 ± 1.2) × 10^−4 s−1 | (6.9 ± 0.2) × 10^3 M^−1 s^−1 | (3.3 ± 0.5) × 10^−4 s−1 | (4.7 ± 0.1) × 10^3 M^−1 s^−1 | (4.2 ± 0.6) × 10^−4 s−1 | (2.0 ± 0.0) × 10^2 M^−1 s^−1 | (2.3 ± 0.1) × 10^−3 s−1 | activity against KPC-2 (in words) (KPC-2): displayed activity; activity against CTX-M-15 (in words) (CTX-M-15): displayed activity; Carbamoylation efficacy of β-lactamases by diazabicyclooctanes (OXA-48): (1.1 ± 0.3) × 10^2 M^−1 s^−1; De-carbamoylation rate constant k−2 for β-lactamase-diazabicyclooctane adducts (OXA-48): (1.7 ± 0.1) × 10^−3 s−1

From US20210300926A1, “NEW BETA-LACTAMASE INHIBITORS TARGETING GRAM NEGATIVE BACTERIA” (priority 2017, published 2021)
